From US20180251765A1, “HIGH-THROUGHPUT SPLIT APTAMER SCREENING ASSAY” (BELLBROOK LABS, priority 2015, published 2018)
Where two headings read alike, the source gives them in different places.

Legend:
[1] = tested on: split Dar-1 riboswitch (P152/P218); test: split aptamer SAH FP assay; format: binding, D. aromatica
Description: Based on the predicted folding of the Dar-1 sequence and imputed SAH binding interactions (Wang et al., 2008, Mol Cell. 29(6):691-702), two versions of a split Dar-1 riboswitch were tested, comprised of either a 59 or 52 base 5′ element (P159 of SEQ ID NO:6 or P152 of SEQ ID NO:7) and the remaining 18 base 3′ element (P218 of SEQ ID NO:8). […] For simplicity, EC50 values were used as an approximation of ligand dissociation constants, or Kd. […] This is the first example of a split aptamer sensor with FP readout.
Selectivity vs. SAM is a critical parameter, as measurement of HMT enzyme activity requires detection of SAH in an excess of SAM. […] Thus, the selectivity for SAH is at least 200-fold and likely higher; however, measurements are limited by contamination of SAM with SAH. The combination of sensitivity and selectivity is reflected in a standard curve mimicking an HMT enzyme reaction, in which 200 nM SAM was decreased as SAH was added proportionately (FIG. 4D). To quantitatively assess the robustness of the split aptamer FP assay, the standard curve was done with sixteen replicates to allow determination of Z′ values, a commonly used HTS assay statistic that measures that incorporates both dynamic range and data variability (Zhang et al., 1999, J Biomol. Screen. 4(2):67-73). […] The Z′ measured in this Example was 0.56, indicative of a high quality assay.

[2] = tested on: split SAH aptamer P152/P218, Eu construct; test: split aptamer SAH TR-FRET assay, Eu construct; format: binding, D. aromatica
[3] = tested on: Dar-1 riboswitch; test: SAH dependent switch with FP readout, intact riboswitch with fluor-labeled oligo; format: binding, D. aromatica; conditions: for EC50: FP dose response
From the text: (§1) The native riboswitch signaling mechanism was first leveraged by transducing the conformational switch that occurs upon SAH binding into a fluorescent signal. The goal was to identify an oligonucleotide that would bind to the riboswitch specifically when SAH was present due to the localized conformational disruption it causes (FIG. 3A). Using two well characterized riboswitches, Ref-1 (SEQ ID NO:1) and Dar-1 (SEQ ID NO:4) (Wang et al., 2008, Mol. Cell. 29(6):691-702), an unbiased, empirical approach was taken by testing a panel of 8-10 bp oligos that covered the entire sequence of each riboswitch. The oligos were labeled with fluors at the 5′ end so that binding could be detected by the increase in fluorescence polarization.
A robust, dose dependent FP shift under optimized conditions was observed, which was quite reproducible. However, the affinity of the riboswitch for SAH was much lower than the low nanomolar level expected, and it decreased further over time (see FIG. 3B and inset table for representative data with Dar-1). […] Moreover, the selectivity for SAH vs. SAM was much poorer than expected, less than 50-fold for both Dar-1 and Ref-1 rather than the 1000-fold-plus selectivity reported for the native riboswitch (Wang et al., 2008, Mol. Cell. 29(6):691-702). Despite significant effort to understand and eliminate the unstable nature of the SAH-riboswitch interaction, including confirming that both the riboswitch and the SAH were not degrading over time, a stable, high affinity SAH dependent signal was unable to be obtained. Thus, a split aptamer approach was next explored.

[4] = tested on: Ref-1 riboswitch; test: as above; format: binding, R. ferrireducens; conditions: intact Ref-1
From the text: as §1
A robust, dose dependent FP shift under optimized conditions was observed, which was quite reproducible. However, the affinity of the riboswitch for SAH was much lower than the low nanomolar level expected, and it decreased further over time (see FIG. 3B and inset table for representative data with Dar-1). […] Moreover, the selectivity for SAH vs. SAM was much poorer than expected, less than 50-fold for both Dar-1 and Ref-1 rather than the 1000-fold-plus selectivity reported for the native riboswitch (Wang et al., 2008, Mol. Cell. 29(6):691-702). […]

[5] = tested on: split SAH aptamer P152/P218, Tb construct; test: split aptamer SAH TR-FRET assay, Tb construct; format: binding, D. aromatica
Description: The split aptamer SAH detection assay was next formatted for TR-FRET readout. Luminescent lanthanides were attached to P152 of the SAH aptamer via streptavidin-biotin, and organic acceptor fluors were attached to P218 during synthesis. Both Tb and Eu lanthanide chelates (Life Technologies) were tested, as were four different organic fluors with excitation spectra overlapping the lanthanide emission (Alexa 633, Alexa 647, Cy5, and Dylight 650.)
Importantly, the signal was stable for at least 15 h.

[6] = target: SAH riboswitch from R. soanacearum; conditions: isothermal titration calorimetry; cited from earlier work
[7] = target: SAH riboswitch from D. aromatica; conditions: cited from earlier work
[8] = target: PRMT1 (Homo sapiens, UniProt Q99873); conditions: read-out: Km (SAM); plot of velocity vs. SAM, FIG. 5F
[9] = tested on: RNA aptamer for theophylline; conditions: on the basis of a single methyl group; cited from earlier work
[10] = target: dimethyl Arg in Histone H3 (H3R8Me2) (Homo sapiens, UniProt P68431); conditions: cited from earlier work
[11] = target: histone H4 acetylated at lysine 16 (H4K16Ac) (Homo sapiens, UniProt P62805); conditions: cited from earlier work

Sequence of PRMT1 (Q99873 whole entry, species assumed): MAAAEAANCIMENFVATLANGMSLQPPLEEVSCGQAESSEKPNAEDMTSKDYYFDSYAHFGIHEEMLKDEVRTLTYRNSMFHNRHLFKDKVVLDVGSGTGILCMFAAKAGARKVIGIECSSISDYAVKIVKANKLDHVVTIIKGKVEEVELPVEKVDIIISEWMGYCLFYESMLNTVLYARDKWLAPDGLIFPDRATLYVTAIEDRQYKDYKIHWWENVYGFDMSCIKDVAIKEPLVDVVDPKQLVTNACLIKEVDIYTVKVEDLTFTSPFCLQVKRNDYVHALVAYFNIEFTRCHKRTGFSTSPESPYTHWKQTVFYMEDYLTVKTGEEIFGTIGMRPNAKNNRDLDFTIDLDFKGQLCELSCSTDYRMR

In the case of `Nc1ncnc2c1ncn2[C@@H]1O[C@H](CSCC[C@H](N)C(=O)O)[C@@H](O)[C@H]1O` [SAH, S-adenosylhomocysteine], the EC50 ([1]; from FP dose response curves FIG. 4B, used as approximation of Kd) is reported as 20 to 25 nM, the “selectivity for SAH vs. SAM” value ([1]; limited by contamination of SAM with SAH) is reported as “at least 200 fold” and the EC50 [2] is reported as 16 nM. For the same compound, the EC50 ([3]; after 3 h, read-out: EC50 for SAH after 3 h) was 1900 nM, the EC50 ([3]; initial reading, read-out: initial EC50 for SAH) was 472 nM and the “selectivity for SAH vs. SAM” value ([3]; intact Dar-1) was “less than 50 fold”. For the same compound, the “selectivity for SAH vs. SAM” value [4] was “less than 50 fold”, the EC50 [5] was 23 nM and the Kd [6] was 30 nM. For the same compound, the Kd ([7]; equilibrium binding analysis) was 20 nM.

For `C[S+](CC[C@H](N)C(=O)[O-])C[C@H]1O[C@@H](n2cnc3c(N)ncnc32)[C@H](O)[C@@H]1O` (stereo partly drawn) [SAM, S-adenosylmethionine], the Km [8] is given as 0.014 µM and the “selectivity for SAH versus SAM (affinity for SAM fold lower)” value ([7]; native riboswitch) is given as “at least 1000 fold”.

For `Cn1c(=O)c2[nH]cnc2n(C)c1=O` [theophylline], the selectivity against caffeine [9] is listed as “more than 10^4 fold”.

In the case of “H3R8Me2 aptamer: 50 base RNA aptamer developed for dimethyl Arg in Histone H3 (GAUGGGUCAGCAUGUAGCCAGGCAGGGCCGUGUGAGCUUGUGCUGAUGUG; RNA, backbone and methylation of C not given here)”, the Kd ([10]; read-out: affinity for the target modified peptide) is listed as 12 nM, the “selectivity for a similar histone PTM (H3K9Me2)” value ([10]; vs H3K9Me2) is listed as 8.1 fold and the “selectivity for the unmodified peptide” value ([10]; vs unmodified peptide) is listed as 3.5 fold.

For “H4K16Ac aptamer: 48 base DNA aptamer for histone H4 acetylated at lysine 16 (AGACGTAAGTTAATTGGACTTGGTCGTGTGCGGCACAGCGATTGAAAT; DNA, backbone and methylation of C not given here)”, the “selectivity versus Histone H4 acetylation at K8 or unmodified Histone H4 sequence” value [11] is listed as “more than 2,000 fold” and the Kd ([11]; read-out: Kd for target PTM) is listed as 21 nM.
